# From patent publication EP1157985A1 (G.D. SEARLE & CO., priority 1996, dated 1997)
# Counter-ions that a name gives are not always drawn. Like-named read-outs stand apart in the source and are kept apart here.
# Columns and labels:
# [1] = target: T1, Human vitronectin receptor (αvβ3) (Homo sapiens, UniProt P05106+P06756); assay: Vitronectin adhesion assay (solid phase receptor assay, competition with biotinylated vitronectin); assay type: binding
# T1 construct: Human vitronectin receptor (αvβ3) was purified from human placenta; from tissue; host or cells: human placenta
# Experimental: VITRONECTIN ADHESION ASSAY
# Human vitronectin receptor (αvβ3) was purified from human placenta as previously described [Pytela et al., Methods in Enzymology, 144:475-489 (1987)]. Human vitronectin was purified from fresh frozen plasma as previously described [Yatohgo et al., Cell Structure and Function, 13:281-292 (1988)]. Biotinylated human vitronectin was prepared by coupling NHS-biotin from Pierce Chemical Company (Rockford, IL) to purified vitronectin as previously described [Charo et al., J. Biol. Chem., 266(3):1415-1421 (1991)]. Assay buffer, OPD substrate tablets, and RIA grade BSA were obtained from Sigma (St. Louis, MO). Anti-biotin antibody was obtained from Calbiochem (La Jolla, CA). Linbro microtiter plates were obtained from Flow Labs (McLean, VA). ADP reagent was obtained from Sigma (St. Louis, MO).
# This assay was essentially the same as previously reported [Niiya et al., Blood, 70:475-483 (1987)]. The purified human vitronectin receptor (αvβ3) was diluted from stock solutions to 1.0 µg/mL in Tris-buffered saline containing 1.0 mM Ca^++, Mg^++, and Mn^++, pH 7.4 (TBS^+++). The diluted receptor was immediately transferred to Linbro microtiter plates at 100 µL/well (100 ng receptor/well). The plates were sealed and incubated overnight at 4°C to allow the receptor to bind to the wells. All remaining steps were at room temperature. The assay plates were emptied and 200 µL of 1% RIA grade BSA in TBS^+++ (TBS^+++/BSA) were added to block exposed plastic surfaces. Following a 2 hour incubation, the assay plates were washed with TBS^+++ using a 96 well plate washer. Logarithmic serial dilution of the test compound and controls were made starting at a stock concentration of 2 mM and using 2 nM biotinylated vitronectin in TBS^+++/BSA as the diluent. This premixing of labeled ligand with test (or control) ligand, and subsequent transfer of 50 µL aliquots to the assay plate was carried out with a CETUS Propette robot; the final concentration of the labeled ligand was 1 nM and the highest concentration of test compound was 1.0 x 10^-4 M. The competition occurred for two hours after which all wells were washed with a plate washer as before. Affinity purified horseradish peroxidase labeled goat anti-biotin antibody was diluted 1:3000 in TBS^+++/BSA and 125 µL were added to each well. After 30 minutes, the plates were washed and incubated with OPD/H2O2 substrate in 100 mM/L Citrate buffer, pH 5.0. The plate was read with a microtiter plate reader at a wavelength of 450 nm and when the maximum-binding control wells reached an absorbance of about 1.0, the final A450 were recorded for analysis. The data were analyzed using a macro written for use with the EXCEL™ spreadsheet program. The mean, standard deviation, and %CV were determined for duplicate concentrations. The mean A450 values were normalized to the mean of four maximum-binding controls (no competitor added)(B-MAX). The normalized values were subjected to a four parameter curve fit algorithm [Rodbard et al., Int.
# [2] = target: T2, Human fibrinogen receptor (αIIbβ3) (Homo sapiens, UniProt P05106+P08514); assay: Purified IIb/IIIa receptor assay (solid phase receptor assay, competition with biotinylated vitronectin); assay type: binding; conditions: purified receptor from outdated platelets; 1 nM biotinylated vitronectin; highest concentration tested 1.0 x 10^-4 M
# T2 construct: Human fibrinogen receptor (αIIbβ3) was purified from outdated platelets; from tissue; host or cells: outdated (human) platelets
# Text: PURIFIED IIb/IIIa RECEPTOR ASSAY
# Human fibrinogen receptor (αIIbβ3) was purified from outdated platelets. (Pytela, R., Pierschbacher, M.D., Argraves, S., Suzuki, S., and Rouslahti, E. "Arginine-Glycine-Aspartic acid adhesion receptors", Methods in Enzymology 144(1987):475-489.) Human vitronectin was purified from fresh frozen plasma as described in Yatohgo, T., Izumi, M., Kashiwagi, H., and Hayashi, M., "Novel purification of vitronectin from human plasma by heparin affinity chromatography," Cell Structure and Function 13(1988):281-292. Biotinylated human vitronectin was prepared by coupling NHS-biotin from Pierce Chemical Company (Rockford, IL) to purified vitronectin as previously described. (Charo, I.F., Nannizzi, L., Phillips, D.R., Hsu, M.A., Scarborough, R.M., "Inhibition of fibrinogen binding to GP IIb/IIIa by a GP IIIa peptide", J. Biol. Chem. 266(3)(1991): 1415-1421.) Assay buffer, OPD substrate tablets, and RIA grade BSA were obtained from Sigma (St. Louis, MO). Anti-biotin antibody was obtained from Calbiochem (La Jolla, CA). Linbro microtiter plates were obtained from Flow Labs (McLean, VA). ADP reagent was obtained from Sigma (St. Louis, MO).
# This assay is essentially the same reported in Niiya, K., Hodson, E., Bader, R., Byers-Ward, V. Koziol, J.A., Plow, E.F. and Ruggeri, Z.M., "Increased surface expression of the membrane glycoprotein IIb/IIIa complex induced by platelet activation: Relationships to the binding of fibrinogen and platelet aggregation", Blood 70(1987):475-483. The purified human fibrinogen receptor (αIIbβ3) was diluted from stock solutions to 1.0 µg/mL in Tris-buffered saline containing 1.0 mM Ca^++, Mg^++, and Mn^++, pH 7.4 (TBS^+++). The diluted receptor was immediately transferred to Linbro microtiter plates at 100 µL/well (100 ng receptor/well). The plates were sealed and incubated overnight at 4°C to allow the receptor to bind to the wells. All remaining steps were at room temperature. The assay plates were emptied and 200 µL of 1% RIA grade BSA in TBS^+++ (TBS^+++/BSA) were added to block exposed plastic surfaces. Following a 2 hour incubation, the assay plates were washed with TBS^+++ using a 96 well plate washer. Logarithmic serial dilution of the test compound and controls were made starting at a stock concentration of 2 mM and using 2 nM biotinylated vitronectin in TBS^+++/BSA as the diluent. This premixing of labeled ligand with test (or control) ligand, and subsequent transfer of 50 µL aliquots to the assay plate was carried out with a CETUS Propette robot; the final concentration of the labeled ligand was 1 nM and the highest concentration of test compound was 1.0 x 10^-4 M. The competition occurred for two hours after which all wells were washed with a plate washer as before. Affinity purified horseradish peroxidase labeled goat anti-biotin antibody was diluted 1:3000 in TBS^+++/BSA and 125 µL were added to each well. After 30 minutes, the plates were washed and incubated with […] substrate in 100 mM/L citrate buffer, pH 5.0. The plate was read with a microtiter plate reader at a wavelength of 450 nm and when the maximum-binding control wells reached an absorbance of about 1.0, the final A450 were recorded for analysis. The data were analyzed using a macro written for use with the EXCEL™ spreadsheet program. The mean, standard deviation, and %CV were determined for duplicate concentrations. The mean A450 values were normalized to the mean of four maximum-binding controls (no competitor added)(B-MAX). The normalized values were subjected to a four parameter curve fit algorithm, [Robard et al., Int. […]
# [3] = purified receptor from human placenta; 1 nM biotinylated vitronectin; highest concentration tested 1.0 x 10^-4 M; read-out: AvB3 IC50
# [4] = read-out: AvB3 IC50; purified receptor from human placenta; 1 nM biotinylated vitronectin; highest concentration tested 1.0 x 10^-4 M
SMILES,"IC50 [1, 3] [nM]",IC50 [2] [nM],"IC50 [1, 4] [nM]"
"CCOC(=O)C(CC(=O)O)c1ccc(NC(=O)c2cccc(NC(=N)N)c2)cc1 (centres unmarked) [Example 71, 1-ethyl hydrogen[4-[[[3-[(aminoiminomethyl)amino]phenyl]carbonyl]amino]-phenyl]butanedioate, trifluoroacetate salt]",38.7,8.3,
"CC(C)(C)OC(=O)N[C@H](Cc1ccc(NC(=O)c2cccc(NC(=N)N)c2)cc1)C(=O)O [Example 57, 4-[[[3-[(aminoiminomethyl)amino]phenyl]carbonyl]amino]-N-[(1,1-dimethylethoxy)carbonyl]-D-phenylalanine, monohydrate trifluoroacetate salt]",14.5,318,
"N=C(N)Nc1cccc(C(=O)Nc2ccc(SCC(=O)O)cc2)c1 [Example 82, [[4-[[[3-[(aminoiminomethyl)amino]phenyl]carbonyl]amino]phenyl]thio]acetic acid, trifluoroacetate]",264,332,
"CC(Oc1ccc(NC(=O)c2cccc(NC(=N)N)c2)cc1)C(=O)O (centres unmarked) [Example 85, 2-[4-[[[3-[(aminoiminomethyl)amino]phenyl]. carbonyl]amino]phenoxy]propanoic acid, trifluoroacetate salt]",827,12600,
"COc1cc(NC(=O)c2cccc(NC3=NCCCN3)c2)ccc1CCC(=O)O [Example 116, 2-methoxy-4-[[[3-[(1,4,5,6-tetrahydropyrimidin-2-yl)amino]phenyl]carbonyl]amino]benzenepropanoic acid, trifluoroacetate salt]",6,3180,
"CCCCS(=O)(=O)NC(Cc1ccc(NC(=O)c2cccc(NC(=N)N)c2)cc1)C(=O)O (centres unmarked) [Example 52, trifluoroacetate salt]",0.33,1.88,
"O=C(Nc1ccc(C[C@H](NS(=O)(=O)c2ccccc2)C(=O)O)cc1)c1cccc(NC2=NCCCN2)c1 [Example 111, N-(phenylsulfonyl)-4-[[[3-[(1,4,5,6-tetrahydro-pyrimidin-2-yl)amino]phenyl]carbonyl]amino]-phenylalanine, trifluoroacetate salt]",0.1,6,
"CC(C)(C)OC(=O)N[C@@H](Cc1ccc(NC(=O)c2cccc(NC(=N)N)c2)cc1)C(=O)O [Example 56, trifluoroacetate salt]",0.43,6.35,
"CC(=O)NC(Cc1ccc(NC(=O)Nc2cccc(NC(=N)N)c2)cc1)C(=O)O (centres unmarked) [Example 68, N-acetyl-4-[[[[3-[(aminoiminomethyl)amino]phenyl]amino]carbonyl]amino]phenylalanine, trifluoroacetate salt]",782,103,
"O=C(Nc1ccc(CC(NS(=O)(=O)c2ccccc2)C(=O)O)cc1)c1cccc(NC2=NCCN2)c1 (centres unmarked) [Example 112, 4-[[[3-[(4,5-dihydro-1H-imidazol-2-yl)amino]phenyl]-carbonyl]amino-N-(phenylsulfonyl)phenylalanine, trifluoroacetate salt]",0.3,13,
"N=C(N)Nc1cccc(C(=O)Nc2ccc(CC(NS(=O)(=O)c3ccccc3)C(=O)O)cc2)c1 (centres unmarked) [Example 51, trifluoroacetate salt]",0.63,0.71,
"CCCCS(=O)(=O)NC(Cc1ccc(NC(=O)c2cccc(NC(=N)N)c2)cc1)C(=O)OCC (centres unmarked) [Example 41, trifluoroacetate salt]",,5700,1080
"N=C(N)Nc1cccc(C(=O)Nc2ccc(OC(C(=O)O)c3ccccc3)cc2)c1 (stereo not drawn) [Example 86, α-[4-[[[3-[(aminoiminomethyl)amino]phenyl]carbonyl]amino]phenoxy]benzeneacetic acid, trifluoroacetate salt]",307,3140,
"N=C(N)Nc1cccc(C(=O)Nc2ccc(CC(N)C(=O)O)cc2)c1 (centres unmarked) [Example 65, 4-[[[3-[(aminoiminomethyl)amino]phenyl]carbonyl]amino]phenylalanine, trifluoroacetate salt]",4760,21900,
"N=C(N)Nc1cccc(C(=O)Nc2ccc(CC(NC(=O)c3ccccc3)C(=O)O)cc2)c1 (centres unmarked) [Example 47, trifluoroacetate salt]",5.89,51.1,
"N=C(N)Nc1cccc(C(=O)NCCc2ccc(CCC(=O)O)cc2)c1 [Example 59, 4-[2-[[[3-[(aminoiminomethyl)amino]phenyl]carbonyl]amino]ethyl]benzenepropanoic acid, trifluoroacetate salt]",4480,478,
"CC(C)OC(=O)NC(Cc1ccc(NC(=O)c2cccc(Nc3n[nH]c(N)n3)c2)cc1)C(=O)O (racemic) [Example 103, (±) 4-[[[3-[3-amino-1H-1,2,4-triazol-5-yl)amino]-phenyl]carbonyl]amino]-N-[(1-methylethoxy) carbonyl]phenylalanine, trifluoroacetate salt]",269,3660,
"CCOC(=O)CCc1ccc(CNC(=O)c2cccc(C#N)c2)cc1 [Example 12, ethyl 4-[[[[3-(cyano)phenyl]-carbonyl]amino]methyl]benzenepropanoate]",> 100000,69200,
"CC(C)OC(=O)NC(Cc1ccc(NC(=O)c2cccc(NC(=N)N)c2)c(Cl)c1)C(=O)O (centres unmarked) [Example 127, trifluoroacetate salt]",,22,0.6
